# According to publication PMC8151276, “An Integrated Approach toward NanoBRET Tracers for Analysis of GPCR Ligand Engagement” (Molecules, 2021):
# Key:
# LGR5 = target: T1, LGR5 (Homo sapiens, UniProt O75473); experiment: NanoBRET screen HiBiT-LGR5 in HEK293; assay type: binding
# T1 construct: purchased Promega (in-house HiBiT-GPCR construct library, NanoBRET)
# T1 sequence (O75473 22-907): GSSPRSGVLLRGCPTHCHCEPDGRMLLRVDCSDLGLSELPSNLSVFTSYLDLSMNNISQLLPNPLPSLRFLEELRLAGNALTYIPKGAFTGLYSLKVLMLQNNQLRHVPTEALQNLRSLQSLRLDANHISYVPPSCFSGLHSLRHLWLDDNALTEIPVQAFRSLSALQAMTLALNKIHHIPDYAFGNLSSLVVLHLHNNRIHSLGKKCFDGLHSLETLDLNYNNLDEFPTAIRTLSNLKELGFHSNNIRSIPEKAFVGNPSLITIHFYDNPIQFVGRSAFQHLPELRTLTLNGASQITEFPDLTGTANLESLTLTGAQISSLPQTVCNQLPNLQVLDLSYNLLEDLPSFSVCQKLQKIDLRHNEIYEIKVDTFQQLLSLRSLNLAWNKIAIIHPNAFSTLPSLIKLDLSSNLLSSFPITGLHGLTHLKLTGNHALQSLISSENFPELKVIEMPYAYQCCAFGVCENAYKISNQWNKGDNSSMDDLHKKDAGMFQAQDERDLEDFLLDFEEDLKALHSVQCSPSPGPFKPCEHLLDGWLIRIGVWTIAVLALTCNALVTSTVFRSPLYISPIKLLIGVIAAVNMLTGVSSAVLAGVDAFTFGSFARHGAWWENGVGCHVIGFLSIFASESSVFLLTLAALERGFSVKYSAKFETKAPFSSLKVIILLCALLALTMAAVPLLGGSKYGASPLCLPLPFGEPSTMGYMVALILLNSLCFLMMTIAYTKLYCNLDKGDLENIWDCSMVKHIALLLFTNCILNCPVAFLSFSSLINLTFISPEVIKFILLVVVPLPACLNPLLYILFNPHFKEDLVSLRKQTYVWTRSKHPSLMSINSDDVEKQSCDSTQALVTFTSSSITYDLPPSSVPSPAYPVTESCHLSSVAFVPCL
# Experimental: (§1) Each tracer candidate was screened across the entire library of HiBiT-GPCR constructs using NanoBRET as the detection modality. As depicted in Figure 4A, the specificity of interactions was evaluated through decrease in BRET due to competitive displacement of a bound tracer by excess parental compound. Each tracer was analyzed for binding to each HiBiT-GPCR fusion in the absence and in the presence of competing parental compound. Briefly, HEK293 cells were transfected with HiBiT-GPCR constructs diluted into promoterless DNA to reduce expression and maximize translocation to the cell surface. Each tracer candidate was then screened at concentrations of 1 μM and 0.1 μM across cells expressing these fusions. Cells were treated for 1.5 h with tracer either alone or in the presence of 20 μM competing parental compound (i.e., control). BRET was measured upon addition of purified LgBiT and subsequent complementation with HiBiT genetically fused to a GPCR. The specificity of interactions was assessed through a decrease in BRET signal due to competitive displacement of the bound tracer. To further gauge the robustness of these interactions, the fold response over the control (i.e., BRETtracer/BRETcontrol) was calculated. We chose a 1.5-fold response, which translates to ≥7-fold signal over noise as the minimal threshold required to score an interaction as positive.
# (§2) HiBiT-GPCR DNA constructs were diluted in 10 mM Tris pH 8 to a final concentration of 0.01 μg/μL, arrayed in 96-well plates and stored at −20 °C. For transfection, HEK293 cells were suspended in Opti-MEM (without phenol red) supplemented with 2% fetal bovine serum (Seradigm) and 100 units/mL penicillin–streptomycin (Gibco) at a final concentration of 220,000 cells/mL and dispensed into white 96-well plates at 90 μL/well. Subsequent transfections and screens were carried using an Agilent Bravo Automated Liquid Handling Platform. First, the 96-well HiBiT DNA arrays were diluted 25-fold in Opti-MEM (without serum or phenol red) to a final concentration of 0.0004 μg/μL and 20 μL of the diluted DNAs were transferred into new 96-well plates. Next, promoterless carrier DNA (1 μg/μL) was diluted 25-fold (0.04 μg/μL) and then dispensed into the diluted arrays at 20 μL/well. Following brief mixing, Viafect transfection reagent (Promega) diluted 16-fold into Opti-MEM was dispensed into the plates at 40 μL/well. After mixing by pipetting, plates were incubated for 10 min on the pipetting station deck. The DNA-transfection reagent complexes were then added to plates containing cells. To facilitate the screen, 10 μL of DNA-transfection reagent complexes were added in duplicates to the top 4 and bottom 4 rows, resulting in two identical 48-well arrays per plate. Plates with transfected cells were incubated for 18–20 h at 37 °C/5% CO2. A screen of each tracer across the entire library using two different concentrations requires duplicate plates of transfected cells. Depending on the number of tracers being screened, transfections can be scaled up using the same ratios. The next day, for each tracer, four 20× screening solutions in tracer dilution buffer (Promega) were prepared: two duplicates at final concentration of 20 μM and two duplicates at a final concentration of 2 μM. […] The four resulting solutions were diluted 4-fold in Opti-MEM without serum or phenol red to generate 5× solutions (5 µM and 0.5 µM tracer +/− 100 μM competing compound). To screen the library, a BioTek MultiFlo FX liquid dispenser was used to dispense 22.5 µL of tracer solution to the top 4 rows and 22.5 µL tracer + competing compound solution to the 4 bottom rows. Plates were briefly mixed on an orbital shaker and incubated for 1.5 h at room temperature. […] Plates were briefly mixed on an orbital shaker and incubated for 15 min to allow complementation.
# CNR2 = target: T2, CNR2 (Homo sapiens, UniProt P34972); experiment: NanoBRET screen HiBiT-CNR2 in HEK293; assay type: binding
# T2 construct: purchased Promega (in-house HiBiT-GPCR construct library, NanoBRET)
# Experimental: as §1, §2
# T2 sequence (P34972 whole entry): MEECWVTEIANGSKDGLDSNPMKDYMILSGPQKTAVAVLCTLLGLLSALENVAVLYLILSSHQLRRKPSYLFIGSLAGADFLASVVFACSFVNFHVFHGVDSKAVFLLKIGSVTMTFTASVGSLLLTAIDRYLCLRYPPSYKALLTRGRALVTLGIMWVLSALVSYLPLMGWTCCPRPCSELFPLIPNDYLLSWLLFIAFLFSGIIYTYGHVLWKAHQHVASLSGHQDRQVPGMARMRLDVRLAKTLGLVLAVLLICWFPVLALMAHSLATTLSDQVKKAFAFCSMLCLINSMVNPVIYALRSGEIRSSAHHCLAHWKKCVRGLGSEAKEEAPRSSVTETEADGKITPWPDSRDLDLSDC
SMILES,"NanoBRET Fold Response (LGR5; LGR5, tracer 0.1μM)","NanoBRET Fold Response (LGR5; LGR5, tracer 1μM)","NanoBRET Fold Response (CNR2; CNR2, tracer 0.1μM)","NanoBRET Fold Response (CNR2; CNR2, tracer 1μM)",also measured
CCOC(=O)c1cc(C#N)c(N2CCC(C(=O)NS(=O)(=O)Cc3ccccc3/C=C/C(=O)NCCNC(=O)CCc3ccc4n3[B-](F)(F)[N+]3=C(c5ccc[nH]5)C=CC3=C4)CC2)nc1C [AZD1283-1-NB590],,,,,"NanoBRET Fold Response (LGR5; LGR5, 0.1μM): 0.86; NanoBRET Fold Response (LGR5; LGR5, 1μM): 0.91; NanoBRET Fold Response (CNR2; CNR2, 0.1μM): 1.04; NanoBRET Fold Response (CNR2; CNR2, 1μM): 0.91"
N#CN=C(NCCCOc1cccc(CN2CCCCC2)c1)NCCNC(=O)CCOCCOCCOCCOCCNC(=O)CCc1ccc2n1[B-](F)(F)[N+]1=C(c3ccc[nH]3)C=CC1=C2 [Aminopotentidine-2-NB590],0.79,1.15,1.00,1.16,
CN(C)CCC=C1c2ccccc2CCc2ccc(C(=O)NCCNC(=O)CCOCCOCCOCCOCCNC(=O)CCc3ccc4n3[B-](F)(F)[N+]3=C(c5ccc[nH]5)C=CC3=C4)cc21 [Amitriptyline-a-2-NB590],,,,,NanoBRET Fold Response (LGR5; tracer at 0.1μM): 0.91; NanoBRET Fold Response (LGR5; tracer at 1μM): 1.02
CN(C)CCC=C1c2ccccc2CCc2ccc(C(=O)NCCNC(=O)CCOCCOCCOCCOCCNC(=O)CCc3ccc4n3[B-](F)(F)[N+]3=C(c5ccc[nH]5)C=CC3=C4)cc21 [Amitriptyline-b-2-NB590],,,0.96,1.05,"NanoBRET Fold Response (LGR5; tracer at 0.1μM, listed as amitriptyline-b-2-NB590): 1.19; NanoBRET Fold Response (LGR5; tracer at 1μM, listed as amitriptyline-b-2-NB590): 1.19"
CN(CCC=C1c2ccccc2CCc2ccccc21)C(=O)CCOCCOCCOCCOCCNC(=O)CCc1ccc2n1[B-](F)(F)[N+]1=C(c3ccc[nH]3)C=CC1=C2 [Amitriptyline-e-2-NB590],,,,,NanoBRET Fold Response (LGR5; tracer at 1μM): 0.85
COc1ccc2c(n1)c(CCNC(C)=O)cn2CCNC(=O)CCc1ccc2n1[B-](F)(F)[N+]1=C(c3ccc[nH]3)C=CC1=C2 [Azamelatonin-1-NB590],,,,,NanoBRET Fold Response (LGR5; 0.1μM tracer): 0.96; NanoBRET Fold Response (LGR5; 1μM tracer): 0.96; NanoBRET Fold Response (CNR2; 0.1μM tracer): 0.98; NanoBRET Fold Response (CNR2; 1μM tracer): 1.01
COc1ccc2[nH]c(-c3ccc(CNC(=O)CCOCCOCCOCCOCCNC(=O)CCc4ccc5n4[B-](F)(F)[N+]4=C(c6ccc[nH]6)C=CC4=C5)cc3)c(CCNC(C)=O)c2n1 [AzomelatoninICO9-2-NB590],,,,,NanoBRET Fold Response (LGR5; 0.1μM tracer): 1.35; NanoBRET Fold Response (LGR5; 1μM tracer): 0.94; NanoBRET Fold Response (CNR2; 0.1μM tracer): 0.97; NanoBRET Fold Response (CNR2; 1μM tracer): 1.06
O=C(CCOCCOCCOCCOCCNC(=O)CCc1ccc2n1[B-](F)(F)[N+]1=C(c3ccc[nH]3)C=CC1=C2)NCCCN1CCN(C2=Nc3cc(Cl)ccc3Nc3ccccc32)CC1 [Clozapine-a-2-NB590],,,,,"NanoBRET Fold Response (LGR5; LGR5, 0.1μM tracer): 0.94; NanoBRET Fold Response (LGR5; LGR5, 1μM tracer): 0.79; NanoBRET Fold Response (CNR2; CNR2, 0.1μM tracer): 1.06; NanoBRET Fold Response (CNR2; CNR2, 1μM tracer): 1.19"
CN1CCN(C2=Nc3cc(Cl)ccc3Nc3ccc(CNC(=O)CCOCCOCCOCCOCCNC(=O)CCc4ccc5n4[B-](F)(F)[N+]4=C(c6ccc[nH]6)C=CC4=C5)cc32)CC1 [Clozapine-b-2-NB590],,,,,"NanoBRET Fold Response (LGR5; LGR5, 0.1μM tracer): 0.95; NanoBRET Fold Response (CNR2; CNR2, 0.1μM tracer): 1.05"
CN1CCN(C2=Nc3cc(Cl)ccc3N(CC(=O)NCCOCCOCCOCCOCCNC(=O)CCc3ccc4n3[B-](F)(F)[N+]3=C(c5ccc[nH]5)C=CC3=C4)c3ccccc32)CC1 [Clozapine-c-2-NB590],,,,,"NanoBRET Fold Response (LGR5; LGR5, 1μM tracer): 0.83; NanoBRET Fold Response (CNR2; CNR2, 0.1μM tracer): 0.96; NanoBRET Fold Response (CNR2; CNR2, 1μM tracer): 1.13"
O=C(CCOCCOCCOCCOCCNC(=O)CCc1ccc2n1[B-](F)(F)[N+]1=C(c3ccc[nH]3)C=CC1=C2)NCCCN1CCN(C2=Nc3ccccc3Oc3ccc(Cl)cc32)CC1 [Loxapine-a-2-NB590],0.94,0.97,0.33,1.25,
COc1ccccc1N1CCN(CCCCN2C(=O)c3ccc(CNC(=O)CCOCCOCCOCCOCCNC(=O)CCc4ccc5n4[B-](F)(F)[N+]4=C(c6ccc[nH]6)C=CC4=C5)cc3C2=O)CC1 [NAN-190-2-NB590],1.22,0.83,0.81,,
COc1ccccc1N1CCN(CCCCN2C(=O)c3ccc(CNC(=O)CCOCCNC(=O)c4ccc(CNC(=O)CCc5ccc6n5[B-](F)(F)[N+]5=C(c7ccc[nH]7)C=CC5=C6)cc4)cc3C2=O)CC1 [NAN-190-3-NB590],1.30,0.72,1.09,1.15,
O=C(CCc1ccc2n1[B-](F)(F)[N+]1=C(c3ccc[nH]3)C=CC1=C2)NCc1ccc(C(=O)NCCOCCC(=O)N[C@@H]2CC[C@@]3(O)[C@H]4Cc5ccc(O)c6c5[C@@]3(CCN4CC3CC3)[C@H]2O6)cc1 [Naltrexone-3-NB590],0.41,1.33,0.92,0.91,
Cc1cc2c(s1)Nc1ccccc1N=C2N1CCN(CCCNC(=O)CCOCCOCCOCCOCCNC(=O)CCc2ccc3n2[B-](F)(F)[N+]2=C(c4ccc[nH]4)C=CC2=C3)CC1 [Olanzapine-a-2-NB590],0.91,0.81,0.23,1.06,
O=C(CCc1ccc2n1[B-](F)(F)[N+]1=C(c3ccc[nH]3)C=CC1=C2)NCc1ccc(C(=O)NCCOCCOCCNCC(O)COc2cccc3ccccc23)cc1 (stereo not drawn) [Propranolol-3-NB590],,,,,"NanoBRET Fold Response (LGR5; LGR5, 0.1μM): 1.10; NanoBRET Fold Response (LGR5; LGR5, 1μM): 0.93; NanoBRET Fold Response (CNR2; CNR2, 0.1μM): 0.95; NanoBRET Fold Response (CNR2; CNR2, 1μM): 1.01"
O=C(CCc1ccc2n1[B-](F)(F)[N+]1=C(c3ccc[nH]3)C=CC1=C2)NCCOCCOCCNC(=O)OCCOCCN1CCN(C2=Nc3ccccc3Sc3ccccc32)CC1 [Quetiapine-a-2-NB590],1.02,0.78,1.07,1.29,
Cc1nc2n(c(=O)c1CCN1CCC(c3noc4cc(F)ccc34)CC1)CCCC2OC(=O)NCCOCCOCCOCCOCCNC(=O)CCc1ccc2n1[B-](F)(F)[N+]1=C(c3ccc[nH]3)C=CC1=C2 (stereo not drawn) [Risperidone-2-NB590],1.07,1.18,1.04,1.12,
